Some test systems named below: NCI-H522; RPMI-8226; 786-0; A498; U-251; COLO 205; HOP-92; SK-OV-3; OVCAR-8; HT-29; M14; MCF7; NCI-H23; MDA-MB-231; OVCAR-4; UACC-257; SW-620; DU-145; CAKI-1; SR.
Common to all, as to assay: DTP human tumour cell line panel, 48 h

Where “and” joins values, the source holds several entries; their conditions need not be identical. Identical values can stand only once.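 Interpolation was linear, between the two tested concentrations surrounding the appropriate level; five concentrations were tested over 48 hours in 96-well plates. GI50 is the concentration that inhibits growth by half.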 Calls of active or inactive are those of the source. Cut-off read from the data, not from the text of the source: active = GI50 up to about 1.1 µM and inactive = higher. Where only a bound is given, the exact number is not on record here.

The term GI50 denotes the concentration at which growth is held to half of that of the control. Consider `CCOC(=O)NN(C(=O)OCC)c1ccc(/N=N/c2ccc(OC)cc2)n1C`, for which the GI50 in the experiment on NCI-H522 is 18 µM (inactive); in the experiment with RPMI-8226, 19.9 µM (inactive); with 786-0 it was 32.2 µM (inactive); in the experiment on A498 it was 25.3 µM (inactive); with U-251, 29.9 µM (inactive); in the experiment with COLO 205, 21.7 µM (inactive). For the same compound, the GI50 in the experiment on HOP-92 is 24.8 µM (inactive); with SK-OV-3, 30.7 µM (inactive); with OVCAR-8 it was 35.5 µM (inactive); in the experiment with HT-29, 22.4 µM (inactive); in the experiment with M14, 22.8 µM (inactive); with MCF7, 6 µM (inactive). For the same compound, the GI50 in the experiment with NCI-H23 was 32.6 µM (inactive); with MDA-MB-231, 19.8 µM (inactive); in the experiment on OVCAR-4, 36.9 µM (inactive); with UACC-257, 23.1 µM (inactive).
In the case of `OCCCCCCOc1ccc(-c2cc(-c3ccccn3)nc(-c3ccccn3)c2)cc1`, the GI50 was 0.367 µM (active) with SW-620; 0.536 µM (active) in the experiment on NCI-H522; 0.134 µM (active) in the experiment with RPMI-8226; 0.0944 µM (active) in the experiment with 786-0; 1.11 µM (active) with A498; 0.0877 µM (active) with U-251. Further, the GI50 with COLO 205 was 0.372 µM (active); in the experiment with DU-145, 0.0716 µM (active); in the experiment on HOP-92, 0.643 µM (active); with SK-OV-3 it was 0.211 µM (active); in the experiment on CAKI-1, 0.256 µM (active); in the experiment on OVCAR-8, 0.136 µM (active). In addition, the GI50 with HT-29 is 0.228 µM (active); in the experiment with M14 it was 0.202 µM (active); in the experiment on MCF7 it was 0.0321 µM (active); with NCI-H23 it was 0.604 µM (active); with SR it was 0.0286 µM (active); with OVCAR-4 it was 0.177 µM (active). For the same compound, the GI50 in the experiment with UACC-257 is 0.397 µM (active).
Regarding `CSc1nc(O)c(C#N)c(-c2ccc(Cl)cc2)n1`, the GI50 with SW-620 is > 100 µM (inactive); with NCI-H522 it was 51.8 µM (inactive); in the experiment with RPMI-8226, 80.4 µM (inactive); in the experiment with 786-0 it was > 100 µM (inactive); in the experiment on A498 it was 74.6 µM (inactive); with U-251, 97.9 µM (inactive). Also, the GI50 in the experiment on COLO 205 is > 100 µM (inactive); with DU-145, > 100 µM (inactive); in the experiment on HOP-92 it was 24.8 µM (inactive); in the experiment with SK-OV-3 it was > 100 µM (inactive); in the experiment on CAKI-1 it was > 100 µM (inactive); with OVCAR-8, > 100 µM (inactive). The GI50 with HT-29, in the experiment with M14, in the experiment with MCF7, in the experiment on NCI-H23, in the experiment with MDA-MB-231 and with OVCAR-4 was > 100 µM (inactive) throughout. In addition, the GI50 in the experiment with UACC-257 is > 100 µM (inactive).
`CCn1c(-c2ccccc2)nc2c1C(=O)c1ccccc1C2=O`: the GI50 in the experiment on SW-620 is 32.1 µM (inactive); in the experiment with NCI-H522, 15.2 µM (inactive); with RPMI-8226, 36.6 µM (inactive); in the experiment with 786-0, 84.9 µM (inactive); in the experiment on U-251, 29.9 µM (inactive); in the experiment with COLO 205 it was 14.1 µM (inactive). Also, the GI50 is 28.1 µM (inactive) in the experiment with DU-145; 24.2 µM (inactive) in the experiment on HOP-92; 20.6 µM (inactive) in the experiment with SK-OV-3; 14 µM (inactive) with OVCAR-8; 8.99 µM (inactive) in the experiment with HT-29; 15.4 µM (inactive) in the experiment on M14. In addition, the GI50 with MCF7 is 25.5 µM (inactive); in the experiment with NCI-H23, 21.8 µM (inactive); in the experiment with SR, 22.3 µM (inactive); with OVCAR-4, 12.5 µM (inactive); in the experiment with UACC-257 it was 3.85 µM (inactive).
Turning to `O=c1c2cc([N+](=O)[O-])ccc2[nH]n1Cc1ccccc1Cl`, the GI50 in the experiment with SW-620 was 88.9 µM (inactive); in the experiment with NCI-H522 it was 32.7 µM (inactive); with RPMI-8226 it was 30.1 µM (inactive); in the experiment on 786-0, 64.9 µM (inactive); with A498, 33.3 µM (inactive); in the experiment with U-251 it was 75.5 µM (inactive). Besides, the GI50 is 73.3 µM (inactive) in the experiment on COLO 205; 47 µM (inactive) in the experiment with DU-145; 27.8 µM (inactive) with HOP-92; > 100 µM (inactive) in the experiment with CAKI-1; 75.7 µM (inactive) in the experiment on OVCAR-8; 54.8 µM (inactive) in the experiment on HT-29. For the same compound, the GI50 in the experiment with M14 is 86.1 µM (inactive); with NCI-H23, 59.6 µM (inactive); in the experiment with SR, 43.5 µM (inactive); with MDA-MB-231, 70.5 µM (inactive); in the experiment with OVCAR-4, > 100 µM (inactive); in the experiment with UACC-257 it was 98.6 µM (inactive).
In the case of `COc1ccc2cc1Oc1ccc(cc1)C[C@H]1c3cc(c(OC)cc3CCN1C)Oc1c(OC)c(OC)cc3c1[C@H](C2)N(C)CC3` [FANCHININ], the GI50 with NCI-H522 was 34.8 µM (inactive) and 6.61 µM (inactive); with RPMI-8226 it was 4.44 µM (inactive); with 786-0, 3.05 µM (inactive) and 43.5 µM (inactive); in the experiment on A498, 7.33 µM (inactive) and 60.5 µM (inactive); with U-251, 35.7 µM (inactive) and 7.66 µM (inactive); in the experiment with HOP-92, 1.79 µM (inactive) and 57.1 µM (inactive). Moreover, the GI50 was 5.9 µM (inactive) and 45.8 µM (inactive) in the experiment on SK-OV-3; 8.38 µM (inactive) and 53.7 µM (inactive) with OVCAR-8; 26.2 µM (inactive) and 260 nM (active) in the experiment on M14; 82 µM (inactive) and 6.43 µM (inactive) with MCF7; 77.4 µM (inactive) and 8.43 µM (inactive) in the experiment on NCI-H23; 2.47 µM (inactive) and 12.1 µM (inactive) with SR. The GI50 with MDA-MB-231 was 5.64 µM (inactive) and 19.8 µM (inactive); in the experiment on OVCAR-4, 2.42 µM (inactive); in the experiment on UACC-257 it was 43.1 µM (inactive) and 5.79 µM (inactive).
For `CCc1nc(N)nc(N)c1-c1ccc(Cl)c(N=[N+]=[N-])c1`, the GI50 with SW-620 was 2.42 µM (inactive); in the experiment with NCI-H522, 7.06 µM (inactive); in the experiment with RPMI-8226, 12.1 µM (inactive); with 786-0, 3.8 µM (inactive); in the experiment on A498, 16.5 µM (inactive); with U-251 it was 5.38 µM (inactive). Further, the GI50 in the experiment on COLO 205 is 11.9 µM (inactive); with DU-145, 12.4 µM (inactive); in the experiment on HOP-92, 10.7 µM (inactive); with SK-OV-3, 30.2 µM (inactive); with MCF7 it was 7.24 µM (inactive); in the experiment on NCI-H23, 4.23 µM (inactive). Also, the GI50 was 14.8 µM (inactive) in the experiment on MDA-MB-231 and 22.4 µM (inactive) with OVCAR-4.
Consider `CC(CCc1ccccc1)NCC(O)n1c(/N=N/N(C)C)nc2c1c(=O)n(C)c(=O)n2C` (stereo not drawn), for which the GI50 in the experiment on SW-620, with NCI-H522, in the experiment on RPMI-8226, with 786-0, in the experiment on A498 and in the experiment on U-251 was > 100 µM (inactive) each time. Also, the GI50 with COLO 205 was > 100 µM (inactive); with HOP-92, > 100 µM (inactive); with SK-OV-3, > 100 µM (inactive); in the experiment on CAKI-1 it was 88.7 µM (inactive); with OVCAR-8 it was > 100 µM (inactive); with HT-29 it was > 100 µM (inactive). Further, the GI50 with M14 was > 100 µM (inactive); with MCF7 it was > 100 µM (inactive); in the experiment with NCI-H23, > 100 µM (inactive); in the experiment with SR it was 43.2 µM (inactive); with MDA-MB-231, > 100 µM (inactive); with OVCAR-4, > 100 µM (inactive). Besides, the GI50 in the experiment with UACC-257 is > 100 µM (inactive).
With `Cc1c(/C=N/NC(=S)Nc2ccc([N+](=O)[O-])cc2)c(=O)n(-c2ccccc2)n1C`, the GI50 with SW-620 is 25.6 µM (inactive); with RPMI-8226, 48.5 µM (inactive); in the experiment on 786-0, 14.3 µM (inactive); with A498 it was 10.9 µM (inactive); in the experiment with U-251, 15.6 µM (inactive); in the experiment on COLO 205, 50.4 µM (inactive). For the same compound, the GI50 is 11.8 µM (inactive) in the experiment with HOP-92; 13.5 µM (inactive) in the experiment with SK-OV-3; 6.85 µM (inactive) with CAKI-1; 13.6 µM (inactive) in the experiment on OVCAR-8; 12.9 µM (inactive) with HT-29; 11.2 µM (inactive) in the experiment with M14. In addition, the GI50 is 20 µM (inactive) in the experiment on MCF7; 17.9 µM (inactive) in the experiment with NCI-H23; 17.4 µM (inactive) in the experiment on SR; 20.7 µM (inactive) in the experiment with MDA-MB-231; 14.6 µM (inactive) in the experiment on OVCAR-4; 30.9 µM (inactive) in the experiment on UACC-257.
Turning to `CCO/C(=N/S(=O)(=O)C(F)(F)F)N(C(C)C)C(C)C`, the GI50 in the experiment with SW-620, with NCI-H522, with RPMI-8226, in the experiment with 786-0, in the experiment on A498 and in the experiment with U-251 was > 100 µM (inactive) throughout. The GI50 with COLO 205, in the experiment on DU-145, in the experiment with HOP-92, in the experiment on CAKI-1, with OVCAR-8 and in the experiment on HT-29 was > 100 µM (inactive) each time. Moreover, the GI50 with M14, with MCF7, in the experiment with NCI-H23, in the experiment on MDA-MB-231, with OVCAR-4 and in the experiment with UACC-257 was > 100 µM (inactive) in each case.
In the case of `COC1C(O)C(C)OC(OC2C(Oc3cccc4c(O)c5c(=O)oc6ccc(C)c7c(=O)oc(c34)c5c67)OC(C)C3O[C@H](c4ccccc4)OC32)C1O` (stereo partly drawn), the GI50 in the experiment on SW-620 is 0.0631 µM (active); in the experiment with RPMI-8226, 0.0796 µM (active); with 786-0, 0.0521 µM (active); with A498, 0.0731 µM (active); in the experiment on U-251, 0.196 µM (active); in the experiment with DU-145, 0.193 µM (active). The GI50 with HOP-92 is 1.23 µM (inactive); in the experiment on SK-OV-3, 0.533 µM (active); with CAKI-1 it was 0.207 µM (active); with OVCAR-8 it was 0.034 µM (active); with HT-29 it was 0.0877 µM (active); with M14, 0.851 µM (active). In addition, the GI50 was 0.084 µM (active) in the experiment on MCF7, 0.845 µM (active) in the experiment with MDA-MB-231 and 1.3 µM (inactive) in the experiment on OVCAR-4.

The values are drawn from ChEMBL document CHEMBL1201862, “PubChem BioAssay data set” (2004).
